# Structures can show the parent of a compound that is named as a salt. Where two headings read alike, the source gives them in different places. Marks after values point to notes of the source that are not given here.
# Assays:
# [1] = cited from earlier work; for Comments: solubility: qualitative, solvents as given in the source
# human = conditions: effective daily dose, oral; cited from earlier work
# [2] = system: patients diagnosed with psychotic disorders; experiment: ICV or cisterna magna treatment of psychotic disorders (Example 5); conditions: central administration, 0.01 to 0.1 mg per hour, 1 week
# Procedure: A 5 mg/ml solution of the active agent is solubilized in aqueous solution using beta-hydroxypropyl cyclodextrin, made isotonic with NaCl, and the pH is maintained at 7.4 with 10 mM sodium phosphate. […] The stabilized solution is inserted into a fluid reservoir attached to a Medtronic Synchromed-II intrathecal delivery system. The stabilized formulation is intracerebroventricularly or cistema magna injected into patients diagnosed with psychotic disorders.
# Injection is continuous, using a computerized pump to provide a delivery rate of 0.01 to 0.1 mg of the active agent per hour, depending on the severity of symptoms.
# [3] = system: patients diagnosed with epilepsy disorders; experiment: ICV or cisterna magna treatment of epilepsy (Example 6); format: in vivo, human; conditions: central administration, 0.01 to 0.1 mg per hour, 1 week
# Source text: After 1 week of treatment, epileptic frequency is reduced.
# [4] = system: pentylenetetrazole (PTZ) seizure induction in rats; experiment: Pentylenetetrazole (PTZ) seizure induction model, ICV administration; format: in vivo, rat; conditions: for % Change: drug group vs vehicle group (-V); for Rodent ICV dose: effective daily dose, blocking seizures; for Efficacy: effective in blocking seizures; for % of Oral dose: rodent ICV dose vs human oral equivalent
# Procedure: Rats are anesthetized, placed in a stereotaxic instrument and a burr hole opened over one anterior lateral ventricle. A cannula is lowered to the ventricle and 5 μl of solution containing the drug is injected into the ventricle over 10 minutes. The incision is then closed and the animal allowed to regain consciousness and remain conscious for 10 minutes. After 10 minutes has elapsed, pentylenetetrazole (PTZ, 10 mg/ml in saline) is injected through a tail-vein catheter at a constant rate of infusion (1 ml/min, Razel syringe pump) until a motor seizure is induced. PTZ seizures are identified as myoclonic jerking followed by clonus and tonus. The time from the initial application of PTZ to the first clonic seizure (i.e., forelimb clonus) is measured and defined as “latency to seiqure onset”. The total amount of PTZ infused is calculated and then divided by each rat;s body weight to obtain the dose (mg/kg) of PTZ. The dose required to attain status epilepticus is compared to the PTZ dose without antiseizure medication.
# [5] = system: sensory inhibition deficits in DBA/2 mice; experiment: Sensory inhibition (paired auditory stimuli, TC ratio) after acute ICV administration; format: in vivo, mouse; conditions: 5 μg dose ICV
# Procedure: The following methods were used to record the sensory inhibition.
# The deficit in sensory inhibition can be quantified using the paired stimulus paradigm in which 2 identical stimuli are delivered 0.5 seconds apart and the electrophysiological response to each is recorded. In normal individuals, the response to the second, or test, stimulus, occurring 50 msec after stimulus onset, is reduced compared to the response to the first, or conditioning stimulus. However, schizophrenia patients have similar magnitude responses to both stimuli: The “TC ratio” is calculated by dividing the test amplitude by the conditioning amplitude. […] In normal individuals, the TC ratio is generally less than 0.4 while schizophrenia patients commonly have TC ratios above 0.5 and often approaching or exceeding 1.0.
# In the present study, briefly, 5 baseline records were obtained in response to the paired auditory stimuli, prior to drug administration. […] Recordings were obtained at 5 minute intervals for 90 minutes post injection. Data analyzed included the amplitude of the response to the first stimulus (conditioning amplitude), amplitude of the response to the second stimulus (test amplitude) and the TC ratio (test amplitude/conditioning amplitude). This final parameter gives a measure of the level of inhibition in the circuit initiated by the conditioning stimulus. […] DBA/2 mice routinely have TC ratios of ≧0.8.
# [6] = system: anxiety in rats (elevated plus maze, open field); experiment: Elevated plus maze and open field conflicts test after ICV antidepressants; format: in vivo, rat; conditions: for Rodent ICV dose: anxiety reduction; for % of Oral dose: rodent ICV dose vs human oral equivalent
# Procedure: Various antidepressants were injected via ICV, and animals monitored in standard elevated plus maze and open field conflicts test.
# Rats are placed in the center of a pluz-shaped maze. The arms are 13 cm wide; two arms were open and two are enclosed by 32 cm high walls. The maze is elevated off the flor by 51 cm. The percent of time and distance traveled in each type of arm over the 4 minute test period is calculated by computer. Increased time and distance traveled in the open arms is thought to reflect anxiolytic activity.
# Rats are place against 1 side of a 104 cm square box with 32 cm sides. The activity of the rat is monitored by computer over a 4 minute testing period. A computer divides the openfied space into 25 equal squares arranged into an outer:ring” of 16 squares, a middle region of 8 squares and a central square. The percent of time and distarnce traveled in the center square by rats receiving the drug are calculated and compared to rats receiving a saline control. Increased time and distance traveled in the center square is thought to reflect anxiolytic activity.
# [7] = system: primary mouse cortical neuron cultures; experiment: Toxicity in primary mouse cortical neuron cultures (MTT); conditions: 24 hours, 0.002% to 0.1% in culture media
# Procedure: In addition, a preliminary assessment of the toxicity of cyclodextrin in primary mouse cortical neuron cultures was performed. […] After dissection, and cellular dissociation, the cells were washed with Dulbecco's Modified Eagle's Medium with 10% fetal bovine serum. Following recentrifugation, the cells resuspended in plating medium, counted with trypan blue and plated at a constant density of 6.5×10^4 cells per well in a 96-well pre-coated plate. […] The cultures were maintained at 37° C. in a humidified atmosphere of 5% CO2. […] The cultures were incubated and cell toxicity assayed at 24, 48 and 72 hours. Viability was assessed by the MTT (3-(4,5 diethylthiazol-2-yl)-2,5)diphenyltetrazolium bromide) assay, CellTiter 96 Non-radioactive cell Proliferation Assay (Promega, Madison Wis.) and by visual examination.
compound,measurement,setting,value
"CCN(CC)CCN1C(=O)CN=C(c2ccccc2F)c2cc(Cl)ccc21 [FLURAZEPAM, 7-chloro-1-[2-(diethylamino)ethyl]-5-(o-fluorophenyl)-1,3-dihydro-2H-1,4-benzodiazepin-2-one dihydrochloride]",Comments: solubility,[1],"Soluble in water, in alcohol, and in 0.1N hydrochloric acid."
"CCCC(CCC)C(=O)O [Valproate, 2-Propylpentanoic acid]",Human oral equivalent,human,1 mg/kg
"CCc1nn(CCCN2CCN(c3cccc(Cl)c3)CC2)c(=O)n1CCOc1ccccc1 [NEFAZODONE, 2-(3-(4-(3-chlorophenyl)-1-piperazinyl)propyl)-5-ethyl-2,4-dihydro-4-(2-phenoxyethyl)-3H-1,2,4-triazol-3-one]",Solubility in water,[1]; at 25 C.,Soluble in water <0.1 g/100 mL at 25 C.
"CC(C)NCC(O)COc1cccc2ccccc12.Cl (stereo not drawn) [PROPRANOLOL, 1-(Isopropylamino)-3-(1-naphthyloxy)-2-propanol hydrochloride]",Comments: solubility,[1],soluble in methanol or ethanol but which has no appreciable solubility in water at physiological pH
"CCN(CC)C(=S)SSC(=S)N(CC)CC [ANTABUSE, bis (diethylthiocarbamoyl) disulfide]",Solubility in water,[1]; at 22 C.,Soluble in water <0.1 g/100 mL at 22 C.
O=C1Cc2cc(CCN3CCN(c4nsc5ccccc45)CC3)c(Cl)cc2N1 [Geodon],alleviation of psychotic symptoms,[2],efficacious therapeutic alleviation of psychotic symptoms
"O=C(O)c1ccccc1O [SALICYLIC ACID, 2-Hydroxybenzoic acid]",Comments: solubility,[1],almost insoluble in water
"COc1cc2nc(N3CCN(C(=O)c4ccco4)CC3)nc(N)c2cc1OC.Cl [PRAZOSIN, 2-[4-(2-Furoyl)piperazin-1-yl]-6,7 dimethoxyquinazolin-4-ylamine hydrochloride]",Solubility in water,[1],very slightly soluble in water (<1 mg/ml) and readily soluble in organic solvents such as ethanol and acetone
same,Comments: solubility,[1],very slightly soluble in water (<1 mg/ml) and readily soluble in organic solvents such as ethanol and acetone
"CN1CCN(CC/C=C2/c3ccccc3Sc3ccc(S(=O)(=O)N(C)C)cc32)CC1 [THIOTHIXINE, cis isomer of N,N-dimethyl-9-[…]3-(4-methyl-1-piperazinyl)-propylidene[…] thioxanthene-2-sulfonamide.]",Comments: solubility,[1],Slightly soluble in water; soluble in alcohol and in methyl alcohol
"C=CCN1CC[C@]23c4c5ccc(O)c4O[C@H]2C(=O)CC[C@@]3(O)[C@H]1C5 [NALOXONE, (−)-17-Allyl-4, 5α-epoxy-3,14-dihydroxymorphinan-6-one hydrochloride]",Comments: solubility,[1],freely soluble in USP alcohol and very soluble in water
"O=C1NC(=O)C(c2ccccc2)(c2ccccc2)N1 [PHENYTOIN, 5,5-diphenyl-2,4-imidazolidinedione]",alleviation of seizures,[3],efficacious therapeutic alleviation of seizures
same,Comments: solubility,[1],Very soluble in water
"NC(=O)N1c2ccccc2C=Cc2ccccc21 [Tegretol, 5H-dibenz[b,f]azepine-5-carboxamide]",Human oral equivalent,human,6.66 mg/kg
same,alleviation of seizures,[3],efficacious therapeutic alleviation of seizures
same,Comments: solubility,[1],Slightly soluble in water and in alcohol
same,% Change,[4],60%
same,Rodent ICV dose,[4],0.00888 mg/kg
same,Efficacy,[4],effective in blocking
same,% of Oral dose,[4],0.13%
"(−)-trans-4R-(4′- fluorophenyl)-3S-((3′,4′- methylenedioxyphenoxy) methyl)piperidine [PAROXETINE]",Comments: solubility,[1],soluble in alcohol and poorly soluble in water
Cc1nccn1CC1CCc2c(c3ccccc3n2C)C1=O (stereo not drawn) [ondansetron],TC ratio,[5],significantly reduced TC ratios
"O=C1CN=C(c2ccccc2)c2cc([N+](=O)[O-])ccc2N1 [NITRAZEPAM, 1,3-Dihydro-7-nitro-5-phenyl-2H-1,4-benzodiazepin-2-one]",Comments: solubility,[1],"Soluble 1 in 12 of water, 1 in 14 of alcohol, and 1 in 3.5 of chloroform; insoluble in ether; freely soluble in methyl alcohol"
"CC1=CC(=O)N2CC(=O)N(C)c3ccc(Cl)cc3C2(c2ccccc2)O1 (stereo not drawn) [KETAZOLAM, 11-Chloro-8,12b-dihydro-2,8-dimethyl-12b-phenyl-4H-[1,3]oxazino[3,2-d][1,4]benzodiazepine-4,7(6H)-dione]",Comments: solubility,[1],Practically insoluble in water; slightly soluble in alcohol; freely soluble in chloroform
OCCOCCN1CCN(C2=Nc3ccccc3Sc3ccccc32)CC1 [Quetiapine],alleviation of psychotic symptoms,[2],efficacious therapeutic alleviation of psychotic symptoms
"O=C1Nc2ccc(Cl)cc2C(c2ccccc2Cl)=NC1O (stereo not drawn) [LOREZAPAM, 7-chloro-5-(0-chlorophenyl)-1,3-dihydro-3-hydroxy-2H-1,4-benzo-diazepin-2-one]",Comments: solubility,[1],Very soluble in organic solvents.
"Clc1ccc2c(c1)C(N1CCNCC1)=Nc1ccccc1O2 [AMOXAPINE, 2-Chloro-11-(1-piperazinyl)dibenz(b,f)(1,4) oxazepine]",Comments: solubility,[1],"Soluble 1 in 460 of water, 1 in 15 of boiling water, 1 in 3 of alcohol, 1 in 45 of chloroform, 1 in 3 of ether, and 1 in 135 of benzene."
"NC(=O)N1c2ccccc2CC(=O)c2ccccc21 [OXCARBAZEPINE, 10,11-Dihydro-10-oxo-5H-dibenz[b,f]azepine-5-carboxamide]",Comments: solubility,[1],"Freely soluble in water, in alcohol, and in dichloromethane"
"CN(C)CCCN1c2ccccc2CCc2ccc(Cl)cc21 [Clomipramine, 3-(3-Chloro-10,11-dihydro-5H-dibenz[b,f]azepin-5-yl)propyldimethylamine hydrochloride]",Human oral equivalent,human,4.16 mg/kg
same,Rodent ICV dose,[6]; effective daily dose,0.37 mg/kg
same,% of Oral dose,[6],8.8%
Nc1nnc(-c2cccc(Cl)c2Cl)c(N)n1 [Lamictal],Human oral equivalent,human,3.33 mg/kg
"Cc1nnc2n1-c1ccc(Cl)cc1C(c1ccccc1Cl)=NC2 [TRIAZOLAM, 8-chloro-6-(o-chlorophenyl)-1-methyl-4H-s-triazolo-(4,3-alpha)(1,4) benzodiazepine]",Comments: solubility,[1],practically insoluble in water and soluble in alcohol and in acetone
Cl.O=c1n(CCCN2CCN(c3cccc(Cl)c3)CC2)nc2ccccn12 [TRAZODONE],Solubility in water,[1]; at 20 C.,insoluble in water <0.1 g/100 mL at 20 C.
CCCCNc1cc(C(=O)O)cc(S(N)(=O)=O)c1Oc1ccccc1 [Bumex],Human oral equivalent,human,0.033 mg/kg
same,alleviation of seizures,[3],efficacious therapeutic alleviation of seizures
same,% Change,[4],90%
same,Rodent ICV dose,[4],0.000364 mg/kg
same,Efficacy,[4],effective in blocking
same,% of Oral dose,[4],1.1%
"CC(NC(C)(C)C)C(=O)c1cccc(Cl)c1.Cl (stereo not drawn) [BUPROPION, 1-(3-chlorophenyl)-2-[(1,1-dimethylethyl)amino]-1-propanone hydrochloride]",Comments: solubility,[1],freely soluble in water and soluble in alcohol and in chloroform.
cyclodextrin,toxicity of cyclodextrin alone,[7],no toxicity
"Cc1nnc2n1-c1ccc(Cl)cc1C(c1ccccc1)=NC2 [ALPRAZOLAM, 8-Chloro-1-methyl-6-phenyl-4H-s-triazolo(4,3-a) (1,4) benzodiazepine]",Comments: solubility,[1],very slightly soluble in water
"CCC(=O)C(CC(C)N(C)C)(c1ccccc1)c1ccccc1 (stereo not drawn) [METHADONE, 1,1-Diphenyl-1-(2-dimethylaminopropyl)-2-butanone]",Comments: solubility,[1],Soluble in water; freely soluble in alcohol and in chloroform; practically insoluble in ether and in glycerol
[Li] [LITHIUM],Solubility in water,[1]; at 22 C.,water 0.1-0.5 g/100 mL
"CNCCC(Oc1ccc(C(F)(F)F)cc1)c1ccccc1 (racemic) [Fluoxetine, (+/−)-N-Methyl-3-phenyl-3-(alpha,alpha,alpha-trifluoro-p-tolyloxy)propylamine hydrochloride]",Human oral equivalent,human,0.33 mg/kg
same,Rodent ICV dose,[6]; estimated effective dose,0.74** mg/kg
same,% of Oral dose,[6],224%
"NNCCc1ccccc1 [Phenelzine, 2-Phenylethylhydrazine]",Human oral equivalent,human,1.5 mg/kg
same,Rodent ICV dose,[6]; effective daily dose,1.8 mg/kg
same,efficacy following ICV administration,[6]; elevated plus maze and open field conflicts test,efficacy
same,Efficacy,"[6]; rat, in vivo",anxiety reduction
same,% of Oral dose,[6],120%
"OCCOCCN1CCN(C(c2ccccc2)c2ccc(Cl)cc2)CC1 (stereo not drawn) [HYDROXYZINE, 2-[2-[4-(p-chlorobenzhydryl)-1-piperazinyl]ethoxy]ethanol dihydrochloride.]",Comments: solubility,[1],"slightly soluble in water and isopropyl alcohol, sparingly soluble in ethanol"
O=C1CCc2ccc(OCCCCN3CCN(c4cccc(Cl)c4Cl)CC3)cc2N1 [Aripiprazole],alleviation of psychotic symptoms,[2],efficacious therapeutic alleviation of psychotic symptoms
"CN(C)CCCN1c2ccccc2CCc2ccccc21 [IMIPRAMINE, 10,11-dihydro-N,N-dimethyl-5H-Dibenz[b,f]azepine-5-propanamine]",Comments: solubility,[1],"insoluble in the common organic solvents, but very soluble in water."
"O=C(CCCN1CCC(O)(c2ccc(Cl)cc2)CC1)c1ccc(F)cc1 [HALOPERIDOL, 4-[4-(p-chlorophenyl)-4-hydroxypiperidino]-4′-fluorobutyrophenone]",Comments: solubility,[1],sparingly soluble in water and soluble in ethanol

# Source: US20140100183A1, “CENTRAL ADMINISTRATION OF STABLE FORMULATIONS OF THERAPEUTIC AGENTS FOR CNS CONDITIONS” (The Regents of the University of Colorado, a body corporate, priority 2006, published 2014)
